Experimental findings from ChEMBL document CHEMBL5620353, “Novel antifungal triazoles with alkynyl-methoxyl side chains: Design, synthesis, and biological activity evaluation” (Eur J Med Chem, 2023) are described below.

The nature of data set [1]: Metabolic stability in human liver microsomes assessed as half life at 1 uM preincubated for 10 mins followed by NADPH addition and measured upto 60 mins by LC-MS/MS analysis. The following applies: time < 70 min. Format: ADME, Microsome. On the technique in general: Microsomes from liver hold many membrane-bound enzymes, among them those of drug oxidation.
Data set [2] can be described thus: Metabolic stability in human liver microsomes assessed as intrinsic clearance at 1 uM preincubated for 10 mins followed by NADPH addition and measured upto 60 mins by LC-MS/MS analysis. The class given is ADME, Microsome. The following applies: time < 70 min, read-out: CLH.
Data set [3] relates to Saccharomyces cerevisiae. The data set can be described thus: Antifungal activity against recombinant Saccharomyces cerevisiae Y2721 overexpressing CpErg11 CpCpr assessed as inhibition of fungal growth incubated for 48 hrs by microbroth dilution method. The class given is functional.
For data set [4], the system named is Saccharomyces cerevisiae. Description: Antifungal activity against recombinant Saccharomyces cerevisiae Y2301 overexpressing ScErg11 Y140F assessed as inhibition of fungal growth incubated for 48 hrs by microbroth dilution method. The class given is functional.
The test system of data set [5] is Saccharomyces cerevisiae. Description: Antifungal activity against recombinant Saccharomyces cerevisiae Y570 overexpressing CaCdr1 assessed as inhibition of fungal growth incubated for 48 hrs by microbroth dilution method. The class given is functional. (Dilution methods test growth across graded concentrations, often in twofold steps.)
In data set [6] the test system is Saccharomyces cerevisiae. The data set can be described thus: Antifungal activity against recombinant Saccharomyces cerevisiae Y525 overexpressing CaMdr1 assessed as inhibition of fungal growth incubated for 48 hrs by microbroth dilution method. Format: functional.
Data set [7] deals with Saccharomyces cerevisiae. The data set can be described thus: Antifungal activity against recombinant Saccharomyces cerevisiae Y2513 overexpressing ScErg11 Y140H assessed as inhibition of fungal growth incubated for 48 hrs by microbroth dilution method. Format: functional.
The test system of data set [8] is Saccharomyces cerevisiae. The data set can be described thus: Antifungal activity against recombinant Saccharomyces cerevisiae Y2374 overexpressing CgErg11 assessed as inhibition of fungal growth incubated for 48 hrs by microbroth dilution method. The class given is functional.
The test system of data set [9] is Saccharomyces cerevisiae. The data set can be described thus: Antifungal activity against recombinant Saccharomyces cerevisiae Y2300 overexpressing ScErg11 assessed as inhibition of fungal growth incubated for 48 hrs by microbroth dilution method. The class given is functional.
The test system of data set [10] is Saccharomyces cerevisiae. The data set can be described thus: Antifungal activity against recombinant Saccharomyces cerevisiae Y2462 overexpressing ScErg11 ScNcp1 assessed as inhibition of fungal growth incubated for 48 hrs by microbroth dilution method. Format: functional.
For data set [11], the system named is Saccharomyces cerevisiae. The data set can be described thus: Antifungal activity against recombinant Saccharomyces cerevisiae Y2411 overexpressing ScErg11 assessed as inhibition of fungal growth incubated for 48 hrs by microbroth dilution method. Format: functional.
Data set [12] deals with Saccharomyces cerevisiae. The data set can be described thus: Antifungal activity against recombinant Saccharomyces cerevisiae Y2459 overexpressing CaErg11 CaCpr assessed as inhibition of fungal growth incubated for 48 hrs by microbroth dilution method. The class given is functional.
Data set [13] relates to Saccharomyces cerevisiae. The data set can be described thus: Antifungal activity against recombinant Saccharomyces cerevisiae Y2716 overexpressing CpErg11 Y132F CpCpr assessed as inhibition of fungal growth incubated for 48 hrs by microbroth dilution method. Format: functional.
The subject of another data set is Cryptococcus neoformans. Description: Antifungal activity against Cryptococcus neoformans 32,609 assessed as inhibition of fungal growth incubated for 72 hrs by microbroth dilution method. The class given is functional.
The test system of another data set is Candida tropicalis. Description: Antifungal activity against Candida tropicalis 8915 assessed as inhibition of fungal growth incubated for 48 hrs by microbroth dilution method. Format: functional.
Data set [14] deals with [Candida] auris. Description: Antifungal activity against fluconazole-resistant Candida auris 891 assessed as inhibition of fungal growth incubated for 48 hrs by microbroth dilution method. The class given is functional. The following applies: Candidozyma auris.
Another data set deals with Candida parapsilosis. The data set can be described thus: Antifungal activity against Candida parapsilosis 22019 assessed as inhibition of fungal growth incubated for 48 hrs by microbroth dilution method. Particulars: Lodderomyces parapsilosis. Format: functional.
The subject of data set [15] is Nakaseomyces glabratus. The data set can be described thus: Potency index, ratio of fluconazole MIC to test compound MIC for antifungal activity against Candida glabrata 537 assessed as inhibition of fungal growth incubated for 48 hrs by microbroth dilution method. Format: functional.
Data set [16] relates to Candida albicans. The data set can be described thus: Antifungal activity against Candida albicans SC5314 assessed as inhibition of fungal growth incubated for 48 hrs by microbroth dilution method. The class given is functional.
For another data set, the system named is Aspergillus fumigatus. The data set can be described thus: Antifungal activity against Aspergillus fumigatus 7544 assessed as inhibition of fungal growth incubated for 72 hrs by microbroth dilution method. Format: functional.
Data set [17] has as its system [Candida] auris. Description: Antifungal activity against fluconazole-resistant Candida auris 919 assessed as inhibition of fungal growth incubated for 48 hrs by microbroth dilution method. Format: functional. Particulars: Candidozyma auris.
Data set [18] relates to Candida albicans. Description: Antifungal activity against Candida albicans 10231 assessed as inhibition of fungal growth incubated for 48 hrs by microbroth dilution method. Format: functional.
Data set [19] relates to Candida albicans. The data set can be described thus: Antifungal activity against fluconazole-resistant Candida albicans 904 assessed as inhibition of fungal growth incubated for 48 hrs by microbroth dilution method. Format: functional.
A further data set has as its system Pichia kudriavzevii. The data set can be described thus: Antifungal activity against Candida krusei 4996 assessed as inhibition of fungal growth incubated for 48 hrs by microbroth dilution method. The class given is functional.
For data set [20], the system named is Candida albicans. Description: Antifungal activity against fluconazole-resistant Candida albicans 901 assessed as inhibition of fungal growth incubated for 48 hrs by microbroth dilution method. Format: functional.
Data set [21] deals with Nakaseomyces glabratus. Description: Antifungal activity against Candida glabrata 537 assessed as inhibition of fungal growth incubated for 48 hrs by microbroth dilution method. The class given is functional.
Data set [22] relates to [Candida] auris. The data set can be described thus: Antifungal activity against fluconazole-resistant Candida auris 918 assessed as inhibition of fungal growth incubated for 48 hrs by microbroth dilution method. The class given is functional. Particulars: Candidozyma auris.
Data set [23] deals with Saccharomyces cerevisiae. The data set can be described thus: Resistance index, ratio of MIC for recombinant Saccharomyces cerevisiae Y525 overexpressing CaMdr1 to MIC for recombinant Saccharomyces cerevisiae Y2411 overexpressing ScErg11. Format: functional.

Usually half-life stands for the time in which the quantity being followed falls by half. As a reminder, the MIC is the smallest concentration in the dilution series that meets the test's criterion for growth inhibition.

In brackets after ≈: the same amount, converted by molar mass.

Regarding `Cc1ncc2n1-c1ccc(Cl)cc1C(c1ccccc1F)=NC2` [MIDAZOLAM], the half-life at 1 µM in data set [1] is 4.67 min. In [2], the microsomal CLint at 1 µM came out at 297 µL/min/mg.
With `CC[C@@H]([C@H](C)O)n1ncn(-c2ccc(N3CCN(c4ccc(OC[C@@H]5CO[C@@](Cn6cncn6)(c6ccc(F)cc6F)C5)cc4)CC3)cc2)c1=O` [POSACONAZOLE], the minimum inhibitory concentration (MIC) was determined as 1 µg/mL in the data set on Saccharomyces cerevisiae [3]; 2 µg/mL with Saccharomyces cerevisiae [4]; 16 µg/mL in the data set on Saccharomyces cerevisiae [5]; 1 µg/mL in the data set with Saccharomyces cerevisiae [6]; 1 µg/mL with Saccharomyces cerevisiae [7]; 1 µg/mL with Saccharomyces cerevisiae [8]. In addition, the MIC worked out at 2 µg/mL with Saccharomyces cerevisiae [9]; 2 µg/mL in the data set with Saccharomyces cerevisiae [10]; 0.5 µg/mL in the data set with Saccharomyces cerevisiae [11]; 2 µg/mL with Saccharomyces cerevisiae [12]; 1 µg/mL with Saccharomyces cerevisiae [13].
For `CC(=O)N1CCN(c2ccc(OCC3COC(Cn4ccnc4)(c4ccc(Cl)cc4Cl)O3)cc2)CC1` (stereo not drawn) [KETOCONAZOLE], the MIC in the data set with Saccharomyces cerevisiae [3] was 0.5 µg/mL; in the data set with Saccharomyces cerevisiae [4] it was 2 µg/mL; with Saccharomyces cerevisiae [5] it was over 64 µg/mL; in the data set on Saccharomyces cerevisiae [6] it was 1 µg/mL; in the data set with Saccharomyces cerevisiae [7] it was 1 µg/mL; in the data set on Saccharomyces cerevisiae [8] it was 1 µg/mL. For the same compound, the MIC is 2 µg/mL in the data set with Saccharomyces cerevisiae [9]; 1 µg/mL in the data set on Saccharomyces cerevisiae [10]; 0.5 µg/mL with Saccharomyces cerevisiae [11]; 0.5 µg/mL in the data set on Saccharomyces cerevisiae [12]; 2 µg/mL in the data set with Saccharomyces cerevisiae [13].
With `C[C@@H](OCC#Cc1ccc(Cl)cc1)[C@](O)(Cn1cncn1)c1ccc(F)cc1F`, the minimal inhibitory concentration (MIC) in the data set with Cryptococcus neoformans was 1 µg/mL (≈ 2.39 µM); with Candida tropicalis, at most 0.125 µg/mL; in [Candida] auris [14], 4 µg/mL (≈ 9.57 µM); in the data set on Candida parapsilosis, 0.5 µg/mL (≈ 1.2 µM); in the data set with Candida albicans [16] it was at most 0.125 µg/mL; with Aspergillus fumigatus, 4 µg/mL (≈ 9.57 µM). Moreover, the MIC in [Candida] auris [17] is 8 µg/mL (≈ 19.1 µM); with Candida albicans [18], 16 µg/mL (≈ 38.3 µM); with Candida albicans [19] it was 32 µg/mL (≈ 76.6 µM); in the data set on Pichia kudriavzevii, 16 µg/mL (≈ 38.3 µM); with Candida albicans [20], 32 µg/mL (≈ 76.6 µM); in the data set with Nakaseomyces glabratus [21] it was at most 0.125 µg/mL. In addition, the MIC in [Candida] auris [22] was determined as 16 µg/mL (≈ 38.3 µM). For the same compound, the Ratio result in the data set on Nakaseomyces glabratus [15] is recorded as “>=8”.
On to `C[C@@H](c1nc(-c2ccc(C#N)cc2)cs1)[C@](O)(Cn1cncn1)c1ccc(F)cc1F` [RAVUCONAZOLE], for which the MIC in the data set with Saccharomyces cerevisiae [3] is 0.031 µg/mL; with Saccharomyces cerevisiae [4], 0.063 µg/mL; in the data set with Saccharomyces cerevisiae [5] it was 32 µg/mL; with Saccharomyces cerevisiae [6] it was 0.125 µg/mL; with Cryptococcus neoformans, at most 0.125 µg/mL; with Saccharomyces cerevisiae [7], 0.016 µg/mL. For the same compound, the MIC in the data set on Candida tropicalis is 4 µg/mL (≈ 9.14 µM); in the data set with Saccharomyces cerevisiae [8], 0.063 µg/mL; in [Candida] auris [14] it was 1 µg/mL (≈ 2.29 µM); with Candida parapsilosis it was at most 0.125 µg/mL; with Saccharomyces cerevisiae [9], 0.063 µg/mL; in the data set on Candida albicans [16], 0.25 µg/mL (≈ 0.571 µM). For the same compound, the MIC with Saccharomyces cerevisiae [10] is 0.063 µg/mL; in the data set with Aspergillus fumigatus, 0.25 µg/mL (≈ 0.571 µM); in data set [Candida] auris [17], 1 µg/mL (≈ 2.29 µM); with Candida albicans [18] it was 16 µg/mL (≈ 36.6 µM); with Candida albicans [19] it was 16 µg/mL (≈ 36.6 µM); with Pichia kudriavzevii, at most 0.125 µg/mL. Besides, the MIC was 16 µg/mL (≈ 36.6 µM) in the data set with Candida albicans [20]; at most 0.125 µg/mL in the data set with Nakaseomyces glabratus [21]; 1 µg/mL (≈ 2.29 µM) in data set [Candida] auris [22]; 0.008 µg/mL with Saccharomyces cerevisiae [11]; 0.016 µg/mL in the data set on Saccharomyces cerevisiae [12]; 0.031 µg/mL in the data set on Saccharomyces cerevisiae [13].
As for `C[C@@H](OCC#Cc1ccc(F)cc1)[C@](O)(Cn1cncn1)c1ccc(F)cc1F`, the MIC in the data set on Cryptococcus neoformans was 0.5 µg/mL (≈ 1.25 µM); in the data set with Candida tropicalis it was 64 µg/mL (≈ 159 µM); in [Candida] auris [14], 16 µg/mL (≈ 39.9 µM); in the data set with Candida parapsilosis, 1 µg/mL (≈ 2.49 µM); with Candida albicans [16], at most 0.125 µg/mL; in the data set with Aspergillus fumigatus it was 1 µg/mL (≈ 2.49 µM). The MIC was 16 µg/mL (≈ 39.9 µM) in data set [Candida] auris [17]; 8 µg/mL (≈ 19.9 µM) with Candida albicans [18]; 32 µg/mL (≈ 79.7 µM) in the data set with Candida albicans [19]; 8 µg/mL (≈ 19.9 µM) in the data set with Pichia kudriavzevii; 64 µg/mL (≈ 159 µM) with Candida albicans [20]; at most 0.125 µg/mL with Nakaseomyces glabratus [21]. Moreover, the MIC in [Candida] auris [22] was 16 µg/mL (≈ 39.9 µM). Further, the Ratio entry in the data set with Nakaseomyces glabratus [15] is listed as “>=8”.
Regarding `C[C@@H](c1ncncc1F)[C@](O)(Cn1cncn1)c1ccc(F)cc1F` [VORICONAZOLE], the MIC in the data set on Saccharomyces cerevisiae [3] was found to be 0.063 µg/mL; with Saccharomyces cerevisiae [4], 0.031 µg/mL; with Saccharomyces cerevisiae [5], 8 µg/mL; in the data set with Saccharomyces cerevisiae [6], 0.5 µg/mL; in the data set on Saccharomyces cerevisiae [7] it was 0.031 µg/mL; with Saccharomyces cerevisiae [8] it was 0.031 µg/mL. Besides, the MIC with Saccharomyces cerevisiae [9] is 0.031 µg/mL; in the data set with Saccharomyces cerevisiae [10], 0.063 µg/mL; with Saccharomyces cerevisiae [11] it was 0.008 µg/mL; with Saccharomyces cerevisiae [12] it was 0.016 µg/mL; in the data set on Saccharomyces cerevisiae [13], 0.25 µg/mL. The Ratio in the data set with Saccharomyces cerevisiae [23] stood at 64.
